“And” between values parts separate entries of the source, which are not always exact repeats. Identical values can stand only once. Like-named read-outs stand apart in the source and are kept apart here.
Experiments:
[1] = biological target: Bcin06g02870 (predicted casein kinase I homolog) (Botrytis cinerea, UniProt A0A384JJQ0); experiment: LiP-Quant, Botrytis cinerea lysate; assay type: binding
Source text: Given its abilities to identify and characterize drug targets and their binding sites, we applied LiP-Quant to a research fungicide compound with an unknown target (BAYE-004, Fig. 4a).

His-tagged Bcin06g02870 = experiment: Cellular thermal shift assay (CETSA), western blot; assay type: cell-based, Botrytis cinerea; settings: in vivo treatment, 56 °C
Method: Botrytis cinerea BO47 (CK1 His-Tagged) cell suspension was adjusted to 1 × 10^6 sp/ml GYPm and incubated for 24 h at 21 °C (110 rpm). […] Cells were harvested by filtration (100 µm) and rinsed with 15 ml of ice-cold HEPES buffer (0.1 M HEPES, 50 mM NaCl, pH 7.5). Harvested mycelium was resuspended in 3.5 ml HEPES buffer and kept on ice. 500 µl of each concentration was transferred to a 2 ml Eppendorf tube and heated to 56 °C on a thermoshaker for 3 min, an additional aliquot from each concentration was left unheated. After heating, cells were kept on ice for 3 min, snap frozen in liquid nitrogen, lyophilized overnight and then stored at −80 °C until protein extraction.
Lyophilized mycelium was lysed using a Retsch mixer mill (MM 400) with 3 mm tungsten carbide beads (30 Hz for 3 s, two cycles), then 500 µl of cold protein extraction buffer (50 mM HEPES, 50 mM NaCl, 0.4% NP-40) was added. Lysate was incubated for 10 min at 25 °C, centrifuged (10 min, 14,000g) and the supernatant was retained. The lysate was further centrifuged (20 min, 73,400g) to eliminate insoluble proteins. The supernatant was collected, and protein concentration was determined using the Qubit protein assay kit (#Q33211) and stored at −20 °C.
Target engagement was assessed by western blot. […] The membrane (target protein) and gel (loading control) were imaged using a ChemiDocXRS camera and quantified using ImageJ[43]. […]

[2] = biological target: T1, Botrytis cinerea MBP-CK1 recombinant enzyme (MBP-tagged Bcin06g02870) (Botrytis cinerea, UniProt A0A384JJQ0); experiment: CK1 kinase assay (LANCE Ultra TR-FRET); assay type: biochemical; settings: for % Inhibition of CK-1: rep 1, rep2
T1 sequence (A0A384JJQ0 1-368): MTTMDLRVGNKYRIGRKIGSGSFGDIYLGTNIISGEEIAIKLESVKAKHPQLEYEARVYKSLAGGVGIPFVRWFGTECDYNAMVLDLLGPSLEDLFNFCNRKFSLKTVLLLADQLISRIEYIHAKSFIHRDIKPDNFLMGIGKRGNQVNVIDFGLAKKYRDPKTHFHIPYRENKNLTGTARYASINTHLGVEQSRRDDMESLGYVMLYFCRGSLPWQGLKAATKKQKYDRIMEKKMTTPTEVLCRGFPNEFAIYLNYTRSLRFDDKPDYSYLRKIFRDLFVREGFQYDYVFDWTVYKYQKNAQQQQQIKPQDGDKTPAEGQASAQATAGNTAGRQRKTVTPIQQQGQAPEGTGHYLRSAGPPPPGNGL
Source text: We calculated the center of mass of the #6 and #7 ranking LiP-Quant peptides to estimate the position of the BAYE-004 binding site within Bcin06g02870. Here we considered two LiP-Quant peptides for the center of mass calculation, as there were only two high scoring LiP-Quant peptides that could be used. The putative binding site of the drug maps in the ATP-binding site of Bcin06g02870, which is also a common binding site for kinase inhibitors (Fig. 4e, Supplementary Data 3). Finally, we performed a LANCE Ultra kinase assay (Perkin Elmer) to measure the phosphorylation activity on a peptide substrate of a purified MBP-tagged version of Bcin06g02870.
The LANCE Ultra time resolved fluorescence resonance energy transfer (Tr-FRET) kinase assay (Perkin Elmer, #TRF0300-C) protocol was used according to manufacturer’s instructions with adaptations made for the following conditions. […] The reaction was performed in duplicates in the dark at 30 °C for 90 min. Plates were read in a Victor2 Perkin plate reader (excitation 340 nm/emission 665 nm).

[3] = biological target: Bcin16g04330 (predicted glycogen synthase kinase-3β homolog) (Botrytis cinerea, UniProt A0A384K7E5); experiment: LiP-Quant, Botrytis cinerea lysate; settings: read-out: extrapolated average EC50; top two ranking LiP-Quant peptides
Botrytis cinerea = experiment: Cell viability (IC50) assay, inhibition of cell growth by optical density; settings: three days, Rep 1-3
Method: Botrytis cinerea BO5.10 (2 × 10^3 cells/ml) mycelium in GYPm liquid media (200 µl) was cultured at 21 °C without shaking in a micro-titer plate. […] The culture was grown for three days at 21 °C after inoculation at which point the optical density was measured again. Inhibition of cell growth was calculated at each concentration.

MAPK2K1 (MAP2K1) = MAPK2K1 (MAP2K1) (Homo sapiens, UniProt Q02750); experiment: LiP-Quant, HeLa lysate; assay type: binding
[4] = biological target: SRPK1_HUMAN (SRSF protein kinase 1) (Homo sapiens, UniProt Q96SB4); experiment: LiP-Quant, HeLa lysate; assay type: binding
[5] = system: KS6A2_HUMAN (Ribosomal protein S6 kinase alpha-2)
[6] = biological target: KS6A3_HUMAN (Ribosomal protein S6 kinase alpha-3) (Homo sapiens, UniProt P51812); experiment: LiP-Quant, HeLa lysate; assay type: binding
EIF2AK2 = EIF2AK2 (Homo sapiens, UniProt P19525); experiment: Deep LiP-Quant (4h gradient), HeLa lysate; assay type: binding
RPS6KA3 = RPS6KA3 (Homo sapiens, UniProt P51812); experiment: Deep LiP-Quant (4h gradient), HeLa lysate; assay type: binding
[7] = biological target: CAMK2G (KCC2G_HUMAN, Calcium/calmodulin-dependent protein kinase type II subunit gamma) (Homo sapiens, UniProt Q13555); experiment: LiP-Quant, HeLa lysate; assay type: binding; settings: staurosporine sheet; peptide NLINQMLTINPAK; LIPRank 5
[8] = biological target: CAMK2G (Calcium/calmodulin-dependent protein kinase type II subunit gamma, KCC2G_HUMAN) (Homo sapiens, UniProt Q13555); experiment: LiP-Quant, HeLa lysate; assay type: binding; settings: peptide NLINQMLTINPAK
NEK9 = NEK9 (Homo sapiens, UniProt Q8TD19); experiment: Deep LiP-Quant (4h gradient), HeLa lysate
[9] = peptide LPSGVFSL, MAP2K1 (Q02750)
[10] = peptide STAGNFLVNPLEPK, SRPK1 (Q96SB4)
[11] = protein level, experiment LiP-Quant
[12] = peptide VLGQGSFGK, RPS6KA3 (P51812)

Chain of CAMK2G (Calcium/calmodulin-dependent protein kinase type II subunit gamma, KCC2G_HUMAN) (Q13555 whole entry): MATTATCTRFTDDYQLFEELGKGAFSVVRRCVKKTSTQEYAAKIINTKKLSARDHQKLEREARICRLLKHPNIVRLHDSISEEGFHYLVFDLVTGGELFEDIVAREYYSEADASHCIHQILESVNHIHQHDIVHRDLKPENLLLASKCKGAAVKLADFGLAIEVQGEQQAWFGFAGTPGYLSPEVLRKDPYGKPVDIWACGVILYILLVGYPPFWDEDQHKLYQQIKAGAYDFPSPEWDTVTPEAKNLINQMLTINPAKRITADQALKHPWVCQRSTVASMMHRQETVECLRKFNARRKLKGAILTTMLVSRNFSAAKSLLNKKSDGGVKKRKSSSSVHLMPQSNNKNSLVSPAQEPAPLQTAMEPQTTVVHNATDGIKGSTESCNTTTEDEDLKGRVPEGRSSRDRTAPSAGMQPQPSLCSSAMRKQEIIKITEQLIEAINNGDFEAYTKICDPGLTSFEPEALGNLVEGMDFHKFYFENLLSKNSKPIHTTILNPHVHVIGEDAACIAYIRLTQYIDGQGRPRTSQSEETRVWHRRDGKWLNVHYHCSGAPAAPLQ
Chain of SRPK1_HUMAN (SRSF protein kinase 1) (Q96SB4 whole entry): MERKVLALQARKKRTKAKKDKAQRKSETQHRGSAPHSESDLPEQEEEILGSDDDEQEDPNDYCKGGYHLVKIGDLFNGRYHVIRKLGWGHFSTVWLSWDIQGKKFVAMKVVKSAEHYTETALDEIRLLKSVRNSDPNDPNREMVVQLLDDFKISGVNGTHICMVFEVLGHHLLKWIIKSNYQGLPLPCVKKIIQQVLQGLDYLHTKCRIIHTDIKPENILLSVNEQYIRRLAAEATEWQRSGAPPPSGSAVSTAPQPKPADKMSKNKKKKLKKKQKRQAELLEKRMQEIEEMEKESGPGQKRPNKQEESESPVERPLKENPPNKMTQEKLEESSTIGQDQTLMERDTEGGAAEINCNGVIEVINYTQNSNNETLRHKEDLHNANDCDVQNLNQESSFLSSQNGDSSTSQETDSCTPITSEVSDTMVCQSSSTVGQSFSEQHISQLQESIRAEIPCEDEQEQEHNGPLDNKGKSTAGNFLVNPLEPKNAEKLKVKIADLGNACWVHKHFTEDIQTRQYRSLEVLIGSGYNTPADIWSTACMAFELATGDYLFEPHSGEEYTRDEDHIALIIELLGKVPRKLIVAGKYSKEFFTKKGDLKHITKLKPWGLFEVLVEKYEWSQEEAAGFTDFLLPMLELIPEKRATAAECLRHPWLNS
Chain of MAPK2K1 (MAP2K1) (Q02750 whole entry): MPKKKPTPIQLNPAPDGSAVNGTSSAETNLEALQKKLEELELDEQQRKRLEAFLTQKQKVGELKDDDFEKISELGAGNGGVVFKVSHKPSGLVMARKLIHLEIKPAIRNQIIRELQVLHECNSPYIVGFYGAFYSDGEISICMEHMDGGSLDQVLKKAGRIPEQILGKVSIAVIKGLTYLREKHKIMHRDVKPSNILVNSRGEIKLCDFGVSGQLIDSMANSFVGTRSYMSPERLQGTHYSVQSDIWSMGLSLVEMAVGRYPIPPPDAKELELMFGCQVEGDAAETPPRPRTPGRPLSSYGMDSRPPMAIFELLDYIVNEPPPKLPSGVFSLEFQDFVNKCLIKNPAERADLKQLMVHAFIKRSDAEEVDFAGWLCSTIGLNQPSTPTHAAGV
Chain of KS6A3_HUMAN (Ribosomal protein S6 kinase alpha-3) (P51812 whole entry): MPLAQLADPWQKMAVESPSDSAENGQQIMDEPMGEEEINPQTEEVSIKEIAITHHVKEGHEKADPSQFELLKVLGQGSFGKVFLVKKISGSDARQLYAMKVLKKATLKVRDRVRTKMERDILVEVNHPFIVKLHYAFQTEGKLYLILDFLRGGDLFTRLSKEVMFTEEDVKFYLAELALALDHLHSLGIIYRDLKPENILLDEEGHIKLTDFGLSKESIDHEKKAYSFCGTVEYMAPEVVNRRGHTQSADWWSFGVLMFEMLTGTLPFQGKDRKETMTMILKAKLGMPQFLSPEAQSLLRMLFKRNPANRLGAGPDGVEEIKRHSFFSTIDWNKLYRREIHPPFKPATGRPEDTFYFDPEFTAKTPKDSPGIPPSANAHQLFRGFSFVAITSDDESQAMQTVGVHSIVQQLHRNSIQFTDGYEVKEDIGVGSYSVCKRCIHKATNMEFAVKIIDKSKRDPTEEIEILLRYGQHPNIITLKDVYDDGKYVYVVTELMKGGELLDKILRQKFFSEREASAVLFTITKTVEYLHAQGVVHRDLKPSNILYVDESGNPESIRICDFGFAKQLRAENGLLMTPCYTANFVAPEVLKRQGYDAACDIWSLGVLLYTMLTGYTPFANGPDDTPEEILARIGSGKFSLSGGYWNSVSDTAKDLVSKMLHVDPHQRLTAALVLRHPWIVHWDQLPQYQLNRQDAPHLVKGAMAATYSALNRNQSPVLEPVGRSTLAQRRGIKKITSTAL
Chain of RPS6KA3 (P51812 whole entry): as above
Chain of NEK9 (Q8TD19 whole entry): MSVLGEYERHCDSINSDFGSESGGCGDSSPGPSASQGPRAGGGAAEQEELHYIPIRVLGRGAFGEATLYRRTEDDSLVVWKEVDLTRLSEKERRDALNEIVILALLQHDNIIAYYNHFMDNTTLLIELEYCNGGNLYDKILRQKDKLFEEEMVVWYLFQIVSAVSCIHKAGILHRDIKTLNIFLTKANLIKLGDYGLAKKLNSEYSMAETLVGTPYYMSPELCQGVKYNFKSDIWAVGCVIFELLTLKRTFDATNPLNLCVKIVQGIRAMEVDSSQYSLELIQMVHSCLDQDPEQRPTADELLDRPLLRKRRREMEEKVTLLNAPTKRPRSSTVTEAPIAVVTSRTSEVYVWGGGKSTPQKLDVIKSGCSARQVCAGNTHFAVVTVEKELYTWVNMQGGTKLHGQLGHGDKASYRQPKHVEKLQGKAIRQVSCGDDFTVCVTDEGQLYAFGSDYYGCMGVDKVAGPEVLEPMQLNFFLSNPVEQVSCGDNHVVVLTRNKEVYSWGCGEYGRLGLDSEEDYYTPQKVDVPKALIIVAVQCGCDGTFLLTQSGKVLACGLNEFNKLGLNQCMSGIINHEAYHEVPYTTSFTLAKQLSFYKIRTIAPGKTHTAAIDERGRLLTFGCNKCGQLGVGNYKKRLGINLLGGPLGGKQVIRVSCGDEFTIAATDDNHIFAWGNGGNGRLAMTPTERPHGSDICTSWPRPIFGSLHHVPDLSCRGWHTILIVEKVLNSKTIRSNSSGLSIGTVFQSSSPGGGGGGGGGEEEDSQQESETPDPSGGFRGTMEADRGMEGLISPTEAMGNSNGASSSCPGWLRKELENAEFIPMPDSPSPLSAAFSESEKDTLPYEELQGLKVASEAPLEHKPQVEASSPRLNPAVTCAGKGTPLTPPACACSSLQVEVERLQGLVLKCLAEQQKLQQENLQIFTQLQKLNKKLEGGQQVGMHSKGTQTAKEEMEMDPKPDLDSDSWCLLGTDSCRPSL
Chain of EIF2AK2 (P19525 whole entry): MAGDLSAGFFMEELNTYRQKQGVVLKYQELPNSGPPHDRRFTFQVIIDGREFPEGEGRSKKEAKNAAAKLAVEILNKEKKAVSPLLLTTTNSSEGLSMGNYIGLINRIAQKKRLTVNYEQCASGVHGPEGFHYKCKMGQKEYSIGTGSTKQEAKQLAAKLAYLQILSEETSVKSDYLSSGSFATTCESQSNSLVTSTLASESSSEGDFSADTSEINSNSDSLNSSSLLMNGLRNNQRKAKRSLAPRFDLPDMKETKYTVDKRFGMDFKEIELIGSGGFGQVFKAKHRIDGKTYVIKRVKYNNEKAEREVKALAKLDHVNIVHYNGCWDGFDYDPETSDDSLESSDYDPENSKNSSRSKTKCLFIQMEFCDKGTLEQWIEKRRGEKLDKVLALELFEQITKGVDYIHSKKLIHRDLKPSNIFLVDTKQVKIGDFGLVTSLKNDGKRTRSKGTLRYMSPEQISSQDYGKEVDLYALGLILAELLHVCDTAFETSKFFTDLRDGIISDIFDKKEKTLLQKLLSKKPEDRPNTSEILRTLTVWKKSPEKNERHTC
Chain of CAMK2G (KCC2G_HUMAN, Calcium/calmodulin-dependent protein kinase type II subunit gamma) (Q13555 whole entry): as the sequence (Q13555 whole entry) above
Chain of Bcin16g04330 (predicted glycogen synthase kinase-3β homolog) (A0A384K7E5 1-398): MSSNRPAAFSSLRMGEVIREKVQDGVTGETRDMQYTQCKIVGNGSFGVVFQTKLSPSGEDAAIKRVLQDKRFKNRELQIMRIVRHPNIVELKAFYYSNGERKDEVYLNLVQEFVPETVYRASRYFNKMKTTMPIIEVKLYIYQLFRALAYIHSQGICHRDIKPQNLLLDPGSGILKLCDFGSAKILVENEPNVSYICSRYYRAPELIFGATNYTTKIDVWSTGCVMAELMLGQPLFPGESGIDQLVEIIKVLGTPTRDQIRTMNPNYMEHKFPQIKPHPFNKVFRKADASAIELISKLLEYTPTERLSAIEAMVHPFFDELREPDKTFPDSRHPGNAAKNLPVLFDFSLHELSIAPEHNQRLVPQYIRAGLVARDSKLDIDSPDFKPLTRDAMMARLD

CCC(=O)Nc1cc(-c2c(-c3ccc(F)cc3)nn3c2CCC3)ccn1 [BAYE-004]
EC50 lower than EC50 of the rest of the LiP-Quant peptides above the 1.5 threshold [1]: approximately 1000 fold
EC50 ([1]; two peptides, LiP-Quant rank #6 and #7): 6 nM and 5 nM
thermal stability upon treatment (His-tagged Bcin06g02870): thermally stabilized
% Inhibition of CK-1 ([2]; concentration 1,00E-04 (unit not given)): 92% and 90%
% Inhibition of CK-1 ([2]; concentration 1,00E-05 (unit not given)): 98% and 105%
% Inhibition of CK-1 ([2]; concentration 1,00E-06 (unit not given)): 99% and 101%
% Inhibition of CK-1 ([2]; concentration 1,00E-07 (unit not given)): 84% and 91%
% Inhibition of CK-1 ([2]; concentration 1,00E-08 (unit not given)): 53% and 50%
% Inhibition of CK-1 ([2]; concentration 1,00E-09 (unit not given)): 9%
IC50 ([2]; read-out: IC50 (% Inhibition of CK-1)): 12.5 nM
EC50 [3]: 1600 nM
inhibition at 0.40745 µM (Botrytis cinerea; Botrytis cinerea, 72 h, read-out: Inhibition of growth, Dose 0.40745 uM): 76.8%
inhibition at 1.22234 µM (Botrytis cinerea; Botrytis cinerea, 72 h, read-out: Inhibition of growth, Dose 1.22234 uM): 82.5%
Inhibition of growth (Botrytis cinerea; Dose 0.40745 uM): 76.882 and 79.9248
Inhibition of growth (Botrytis cinerea; Dose 1.22234 uM): 82.7279 and 79.8427

CN[C@@H]1C[C@H]2O[C@@](C)([C@@H]1OC)n1c3ccccc3c3c4c(c5c6ccccc6n2c5c31)C(=O)NC4 [Staurosporine]
DRC (MAPK2K1 (MAP2K1); [9]): 0.9366
LIPRank (MAPK2K1 (MAP2K1); [9]): 2
LIPscore (MAPK2K1 (MAP2K1); peptide VSIAVIK (selumetinib sheet) or best peptide of the protein (Supp Data 7)): 2.822
LIPRank (MAPK2K1 (MAP2K1); peptide VSIAVIK (selumetinib sheet) or protein level (Supp Data 7)): 2
LIPscore (MAPK2K1 (MAP2K1); staurosporine sheet, peptide LPSGVFSL, LIPRank 2): 2.822
DRC [4, 10]: 0.9525
LIPRank [4, 10]: 1
LIPRank [4, 11]: 1
LIPscore [4, 11]: 3.113
LIPscore ([4]; staurosporine sheet, peptide […], LIPRank 1): 3.113
LIPscore [5, 11]: 2.777
LIPscore ([5]; staurosporine sheet, peptide […], LIPRank 3): 2.777
DRC [6, 12]: 0.9262
LIPRank [6, 12]: 4
LIPRank [6, 11]: 4
LIPscore [6, 11]: 2.665
LIPscore ([6]; staurosporine sheet, peptide VLGQGSFGK, LIPRank 4): 2.665
LiP Score (EIF2AK2; peptide IGDFGLVTSLK): 4.708
LIPRank (EIF2AK2; protein level): 2
LiP Score (RPS6KA3; peptide ADPSQFELLK): 4.635
LIPRank (RPS6KA3; protein level): 3
LIPscore [7]: 2.655
DRC [8]: 0.9333
LIPRank [8]: 5
LIPscore [8]: 2.655
LiP Score (NEK9; peptide GAFGEATLYR): 4.511
LIPRank (NEK9; protein level): 4
